The results in this text go back to ChEMBL document CHEMBL5584206, “Discovery of (S)-3-(4-(benzyloxy)phenyl)-2-(2-phenoxyacetamido)propanoic acid derivatives as a new class of GPR34 antagonists” (Bioorg Med Chem Lett, 2024).

In data set [1] the target is T1, Probable G-protein coupled receptor 34 (Homo sapiens, UniProt Q9UPC5). Nature of the data set: Antagonist activity at GPR34 (unknown origin) by Glosensor cAMP assay. The format is functional.
For data set [2], the target named is T2, Adenosine receptor A3 (Homo sapiens, UniProt P0DMS8).
T2 sequence (P0DMS8 whole entry): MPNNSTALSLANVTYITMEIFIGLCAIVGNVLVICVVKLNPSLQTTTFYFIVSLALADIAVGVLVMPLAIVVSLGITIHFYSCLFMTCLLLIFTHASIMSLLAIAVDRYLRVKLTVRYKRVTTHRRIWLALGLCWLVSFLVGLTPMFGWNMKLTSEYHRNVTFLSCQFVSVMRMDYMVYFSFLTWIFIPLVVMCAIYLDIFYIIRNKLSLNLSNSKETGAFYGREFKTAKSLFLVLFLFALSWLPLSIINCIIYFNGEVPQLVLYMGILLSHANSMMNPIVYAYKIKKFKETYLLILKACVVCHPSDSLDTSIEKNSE
Nature of the data set: Antagonist activity at A3AR (unknown origin). Type of data set: functional.

Another data set concerns Mus musculus. Nature of the data set: Antinociceptive activity in mouse model of SNI-induced neuropathic pain assessed as reduction in mechanical allodynia at 10 to 20 mg/kg, ip bid. The format is functional, organism-based. The settings on record: dose 10-20 mg/kg.
For data set [3], the target named is T3, P2Y purinoceptor 12 (Homo sapiens, UniProt Q9H244). Nature of the data set: Agonist activity at P2Y12R (unknown origin). The format is functional.
T3 sequence (Q9H244 whole entry): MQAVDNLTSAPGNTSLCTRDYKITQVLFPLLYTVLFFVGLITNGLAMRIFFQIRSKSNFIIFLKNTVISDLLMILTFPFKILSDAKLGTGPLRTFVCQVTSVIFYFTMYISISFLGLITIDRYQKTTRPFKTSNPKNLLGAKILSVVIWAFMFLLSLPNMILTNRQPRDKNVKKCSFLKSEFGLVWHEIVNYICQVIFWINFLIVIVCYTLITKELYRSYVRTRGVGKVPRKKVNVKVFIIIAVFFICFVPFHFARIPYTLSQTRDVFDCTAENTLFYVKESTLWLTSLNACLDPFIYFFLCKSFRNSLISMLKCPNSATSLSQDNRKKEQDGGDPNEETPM
The target of data set [4] is T4, C-X-C chemokine receptor type 5 (Homo sapiens, UniProt P32302).
T4 sequence (P32302 whole entry): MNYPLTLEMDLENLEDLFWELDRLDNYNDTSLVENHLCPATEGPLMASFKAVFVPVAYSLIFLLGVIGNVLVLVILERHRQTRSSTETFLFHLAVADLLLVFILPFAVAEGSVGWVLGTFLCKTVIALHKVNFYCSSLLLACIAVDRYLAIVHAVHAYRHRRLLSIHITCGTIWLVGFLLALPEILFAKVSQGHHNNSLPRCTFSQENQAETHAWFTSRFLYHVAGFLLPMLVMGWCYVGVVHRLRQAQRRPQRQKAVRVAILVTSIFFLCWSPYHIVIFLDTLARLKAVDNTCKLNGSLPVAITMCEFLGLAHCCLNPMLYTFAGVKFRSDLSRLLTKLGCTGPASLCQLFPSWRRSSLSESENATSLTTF
The data set is described as follows: Antagonist activity at CXCR5 (unknown origin). Type of data set: functional.

Data set [5] addresses T5, Lysophosphatidic acid receptor 3 (Homo sapiens, UniProt Q9UBY5).
T5 sequence (Q9UBY5 whole entry): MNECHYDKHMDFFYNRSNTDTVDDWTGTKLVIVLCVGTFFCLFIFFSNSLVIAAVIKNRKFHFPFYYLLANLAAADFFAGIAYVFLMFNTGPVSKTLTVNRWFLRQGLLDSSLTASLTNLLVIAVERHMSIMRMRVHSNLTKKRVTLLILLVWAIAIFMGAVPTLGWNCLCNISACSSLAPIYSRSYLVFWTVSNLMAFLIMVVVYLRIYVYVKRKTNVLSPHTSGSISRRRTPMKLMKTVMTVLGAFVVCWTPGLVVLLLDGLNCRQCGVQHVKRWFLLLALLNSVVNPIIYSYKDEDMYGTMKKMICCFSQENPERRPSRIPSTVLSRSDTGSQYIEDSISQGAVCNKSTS
The data set is described as follows: Antagonist activity at LPAR3 (unknown origin). Type of data set: functional.

A short description of data set [6]: Cytotoxicity against HEK293 cells incubated for 72 hrs by MTT assay. The format is toxicity, cell-based. The settings on record: human.
A short description of data set [7]: Cytotoxicity against African green monkey COS-7 cells incubated for 72 hrs by MTT assay. The format is toxicity, cell-based, Chlorocebus aethiops.
In data set [8] the target is T4, C-X-C chemokine receptor type 5. The data set is described as follows: Agonist activity at CXCR5 (unknown origin). Type of data set: functional.
Data set [9] deals with T6, Lysophosphatidic acid receptor 4 (Homo sapiens, UniProt Q99677). The data set is described as follows: Antagonist activity at LPAR4 (unknown origin). Type of data set: functional.
T6 sequence (Q99677 whole entry): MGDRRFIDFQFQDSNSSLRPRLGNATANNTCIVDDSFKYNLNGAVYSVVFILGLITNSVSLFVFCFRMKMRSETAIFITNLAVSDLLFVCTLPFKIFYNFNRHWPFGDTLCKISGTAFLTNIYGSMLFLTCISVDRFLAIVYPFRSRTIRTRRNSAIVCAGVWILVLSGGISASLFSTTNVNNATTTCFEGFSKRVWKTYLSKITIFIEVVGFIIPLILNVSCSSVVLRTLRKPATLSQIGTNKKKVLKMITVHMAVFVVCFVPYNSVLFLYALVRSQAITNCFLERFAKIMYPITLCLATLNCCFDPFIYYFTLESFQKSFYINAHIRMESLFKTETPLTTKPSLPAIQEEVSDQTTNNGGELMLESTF
Data set [10] is described as follows: Toxicity in C57BL/6 mouse assessed as indications of organ damage at 100 mg/kg, ip bid for 6 days consecutively. The format is organism-based. The following applies: in vivo, 144 h, time 6 day.
Data set [11] in a line: Acute toxicity in C57BL/6 mouse assessed as animal death at 200 mg/kg, ip. The format is organism-based. The following applies: in vivo.
Data set [12] can be described thus: Cytotoxicity against human BEAS-2B cells incubated for 72 hrs by MTT assay. The format is toxicity, cell-based.
A short description of data set [13]: Cytotoxicity against human HUVEC cells incubated for 72 hrs by MTT assay. Type of data set: toxicity, cell-based.
Data set [14] addresses T6, Lysophosphatidic acid receptor 4. Nature of the data set: Agonist activity at LPAR4 (unknown origin). The format is functional.
Data set [15] is described as follows: Cytotoxicity against human LX2 cells incubated for 72 hrs by MTT assay. The settings on record: LX-2 cells. The format is toxicity, cell-based.
The nature of data set [16]: Cytotoxicity against human Muller cells incubated for 72 hrs by MTT assay. The format is toxicity, cell-based, Muller cell.
The target of data set [17] is T5, Lysophosphatidic acid receptor 3. The data set is described as follows: Agonist activity at LPAR3 (unknown origin). Type of data set: functional.
Data set [18] deals with T3, P2Y purinoceptor 12. The data set is described as follows: Antagonist activity at P2Y12R (unknown origin). Type of data set: functional.
For data set [19], the target named is T2, Adenosine receptor A3. Nature of the data set: Agonist activity at A3AR (unknown origin). The format is functional.
The nature of data set [20]: Toxicity in C57BL/6 mouse assessed as body weight change at 100 mg/kg, ip bid for 6 days consecutively. The format is organism-based. The following applies: in vivo, 144 h, time 6 day.
For data set [21], the target named is T7, Cannabinoid receptor 2 (Homo sapiens, UniProt P34972). Nature of the data set: Antagonist activity at CB2 (unknown origin). Type of data set: functional.
T7 sequence (P34972 whole entry): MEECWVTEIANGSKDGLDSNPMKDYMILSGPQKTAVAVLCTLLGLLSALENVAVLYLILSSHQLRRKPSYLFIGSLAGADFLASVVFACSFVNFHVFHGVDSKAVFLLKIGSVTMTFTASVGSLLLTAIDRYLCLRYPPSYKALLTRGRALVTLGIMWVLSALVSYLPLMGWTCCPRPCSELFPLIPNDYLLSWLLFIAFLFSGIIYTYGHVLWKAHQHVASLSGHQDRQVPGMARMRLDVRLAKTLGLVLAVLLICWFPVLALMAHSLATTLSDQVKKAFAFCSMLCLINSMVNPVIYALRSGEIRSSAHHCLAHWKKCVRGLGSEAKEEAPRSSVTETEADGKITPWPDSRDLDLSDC
The target of data set [22] is T7, Cannabinoid receptor 2. Nature of the data set: Agonist activity at CB2 (unknown origin). The format is functional.
Data set [23] deals with T1, Probable G-protein coupled receptor 34. Nature of the data set: Antagonist activity at GPR34 (unknown origin) by Tango assay. Type of data set: functional.

Each structure is given as a SMILES string. The source made the active and inactive calls. No cut-off for these calls is given here.

T1 sequence (Q9UPC5 whole entry): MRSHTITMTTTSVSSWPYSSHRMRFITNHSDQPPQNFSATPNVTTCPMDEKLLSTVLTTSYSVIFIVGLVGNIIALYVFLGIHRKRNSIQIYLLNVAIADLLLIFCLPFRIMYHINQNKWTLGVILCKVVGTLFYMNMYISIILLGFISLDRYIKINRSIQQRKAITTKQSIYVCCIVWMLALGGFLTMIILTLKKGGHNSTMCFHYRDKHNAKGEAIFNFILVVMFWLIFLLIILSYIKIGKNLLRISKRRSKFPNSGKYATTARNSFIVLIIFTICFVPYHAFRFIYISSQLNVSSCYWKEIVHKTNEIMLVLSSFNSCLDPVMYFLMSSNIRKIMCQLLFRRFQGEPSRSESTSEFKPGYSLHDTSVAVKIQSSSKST

With `Cn1nccc1-c1ccc(OCC(=O)N[C@@H](Cc2ccc(OCc3ccccc3)cc2)C(=O)O)cc1`, the half-inhibitory concentration (IC50) in data set [1] was more than 30 µM.
With `O=C(COc1ccc(-c2cccc(Cl)c2)cc1)N[C@@H](Cc1ccccc1)C(=O)O`, the IC50 in data set [1] was more than 30 µM.
On the same count and under the same terms, the value for `O=C(COc1ccc(-c2cccc(Cl)c2)cc1)N[C@H](Cc1ccc(OCc2ccccc2)cc1)C(=O)O` was 2.98 µM; that for `O=C(COc1ccc(-c2ccc(F)cc2)cc1)N[C@@H](Cc1ccc(OCc2ccccc2)cc1)C(=O)O` was 0.968 µM; that for `O=C(COc1cccnc1)N[C@@H](Cc1ccc(OCc2ccccc2)cc1)C(=O)O` was more than 30 µM.
The same measure, in the same setting: the result for `CC(C)c1ccc(OCC(=O)N[C@@H](Cc2ccc(OCc3ccccc3)cc2)C(=O)O)cc1` reads more than 30 µM.
Still for that read-out and setting: the result for `O=C(COc1ccc(-c2cccc(F)c2)cc1)N[C@@H](Cc1ccc(OCc2ccccc2)cc1)C(=O)O` reads 1.28 µM.
On to `O=C(COc1ccc(-c2cccc(Cl)c2)cc1)N[C@@H](Cc1ccc(OCc2ccccc2)cc1)C(=O)O`, for which the 50% inhibitory concentration (IC50) was determined as 0.68 µM in [1] and 0.059 µM in data set [23]. Also, the concentration for a half-maximal effect (EC50) (at Adenosine receptor A3 [2]; on P2Y purinoceptor 12 [3]; in [4]; in data set [5]; in [8]; in data set [9]) was more than 10 µM throughout. Also, the EC50 (in [14]; in [17]; at P2Y purinoceptor 12 [18]; at Adenosine receptor A3 [19]; at Cannabinoid receptor 2 [21]; at Cannabinoid receptor 2 [22]) was more than 10 µM each time. In addition, the result in the data set on Mus musculus was Active. Also, the half-maximal inhibitory concentration (IC50) at 72 h in data set [6], in [7], in [12], in [13], in data set [15] and in [16] was more than 30 µM throughout. In addition, the Activity entry in data set [10], in data set [11] and in [20] was “Non-Toxic” throughout.
`O=C(COc1ccc(-c2cccc(Cl)c2)cc1)N[C@@H](CC1CCCCC1)C(=O)O` yielded an IC50 in data set [1] of more than 30 µM.
On the same count and under the same terms, the result for `COC(=O)[C@H](Cc1ccc(OCc2ccccc2)cc1)NC(=O)COc1ccc(-c2cccc(Cl)c2)cc1` reads more than 30 µM; that for `O=C(COc1ccccc1F)N[C@@H](Cc1ccc(OCc2ccccc2)cc1)C(=O)O`, more than 30 µM.
The compound `Cc1ccc(OCC(=O)N[C@@H](Cc2ccc(OCc3ccccc3)cc2)C(=O)O)cc1` displayed a 50% inhibitory concentration (IC50) in [1] of more than 30 µM.
`O=C(COc1ccc(-c2cccc(C(F)(F)F)c2)cc1)N[C@@H](Cc1ccc(OCc2ccccc2)cc1)C(=O)O`: the 50% inhibitory concentration (IC50) in data set [1] stood at 1.31 µM.
The same measure, in the same setting: the value for `O=C(COc1ccc(-c2cccc(Cl)c2)cc1)N[C@@H](Cc1ccc(O)cc1)C(=O)O` was more than 30 µM.
Same read-out and setting: the result for `NC(=O)[C@H](Cc1ccc(OCc2ccccc2)cc1)NC(=O)COc1ccc(-c2cccc(Cl)c2)cc1` reads more than 30 µM; that for `O=C(COc1cccc(F)c1)N[C@@H](Cc1ccc(OCc2ccccc2)cc1)C(=O)O`, 13.9 µM.
Regarding `COc1cccc(-c2ccc(OCC(=O)N[C@@H](Cc3ccc(OCc4ccccc4)cc3)C(=O)O)cc2)c1`, in data set [1], the half-maximal inhibitory concentration (IC50) is more than 30 µM.
Still for that read-out and setting: the result for `N#Cc1cccc(OCC(=O)N[C@@H](Cc2ccc(OCc3ccccc3)cc2)C(=O)O)c1` reads 17.4 µM; that for `O=C(COc1ccc(-c2ccccc2F)cc1)N[C@@H](Cc1ccc(OCc2ccccc2)cc1)C(=O)O`, more than 30 µM; that for `COc1cccc(OCC(=O)N[C@@H](Cc2ccc(OCc3ccccc3)cc2)C(=O)O)c1`, more than 30 µM.
Compound `O=C(COc1ccc(-c2ccc(Cl)cc2)cc1)N[C@@H](Cc1ccc(OCc2ccccc2)cc1)C(=O)O` registered a half-maximal inhibitory concentration (IC50) in data set [1] of 1.57 µM.
The same measure, in the same setting: the result for `C[C@H](NC(=O)COc1ccc(-c2cccc(Cl)c2)cc1)C(=O)O` reads more than 30 µM; that for `O=C(COc1ccc(F)cc1)N[C@@H](Cc1ccc(OCc2ccccc2)cc1)C(=O)O`, 11.6 µM; that for `O=C(COc1ccc(Cl)cc1)N[C@@H](Cc1ccc(OCc2ccccc2)cc1)C(=O)O`, more than 30 µM.
Same read-out and setting: the result for `O=C(COc1ccccc1)N[C@@H](Cc1ccc(OCc2ccccc2)cc1)C(=O)O` reads more than 30 µM.
